The nature of assay [1]: Cellular growth inhibition, T-Rex 293 SC cells with doxycycline (progesterone receptor isoform B induced), Example 45. Format: cell-based. The settings on record: progesterone receptor isoform B induced with 10 ng/mL doxycycline, 72 hours, CellTiter-Glo 2.0, Table 11. The protocol:
(§1) The following types of cells were prepared for this experiment: (i) a T-Rex 293 cell line having increased expression of progesterone receptor isoform B protein due to exposure to doxycycline and (ii) a T-Rex 293 cell line lacking increased expression of progesterone receptor isoform B protein. Ability of the test compounds to inhibit proliferation of the foregoing cell types was evaluated according to the procedures set forth below.
(§2) The doxycycline-inducible progesterone receptor isoform B protein expressing cell line was established using the following protocol: T-Rex 293 cells were purchased from Invitrogen (Cat #R71007) and transfected using Lipofectamine 2000 with the wild-type progesterone receptor B protein sequence cloned into the pcDNA4/TO vector. Transfected cells were selected using 400 μg/mL Zeocin (Invitrogen Cat #R25001). Following selection, single clones were raised and maintained in Dulbecco's Modified Eagle Medium (DMEM) supplemented with 10% w/w Tetracycline-free fetal bovine serum (FBS) and 250 μg/mL Zeocin. Clones were analyzed for expression of progesterone receptor isoform B protein in the presence and absence of 10 ng/mL doxycycline (Sigma Cat #D9891), and a single doxycycline-inducible clone (hereinafter “SC”) was selected for use in downstream assays.
(§3) The SC cells were seeded on poly-D-lysine coated, black clear-bottom 384-well plates at 2500/well, in 25 μL Phenol Red Free Dulbecco's Modified Eagle Medium (DMEM) supplemented with 10% w/w charcoal-dextran treated fetal bovine serum (FBS) and 1% w/w pen-strep, with or without 10 ng/mL doxycycline. Pen-Strep is a commercially available mixture of penicillin G and streptomycin, which is used in mammalian cell culture media to prevent bacterial contamination. Phenol Red Free Dulbecco's Modified Eagle Medium (DMEM) supplemented with 10% w/w charcoal-dextran treated fetal bovine serum (FBS) and 1% w/w pen-strep, with or without 10 ng/mL doxycycline is herein referred to as Treatment Medium. Following seeding of cells in the plates, the plates were spun at 300×g for 30 seconds, then equilibrated to room temperature for 30 minutes, and then deposited in a humidified tissue culture incubator maintained at 37° C. with 5% CO2.
(§4) At 24 hours after seeding of the cells, dilutions of test compound were prepared in DMSO and dissolved in Treatment Medium, to achieve a final DMSO concentration of 0.5% w/w, thereby providing the Test Compound Solution. A 25 μL aliquot of the Test Compound Solution was added to cells in the well plates. An equal volume of a solution containing DMSO and Treatment Medium was used as a negative control. Following treatment of cells with Test Compound Solution or said equal volume of a solution containing DMSO and Treatment Medium, the plates were spun at 300×g for 30 seconds, and then left in an incubator for 72 hours.
(§5) At the end of the treatment duration, cell viability was quantified with CellTiter-Glo 2.0 reagent (Promega Cat #G9243). For this purpose, plates were equilibrated to room temperature for 30 minutes, and then 25 μL of CellTiter-Glo 2.0 reagent was added to cells in the plate wells. Plates were then agitated on a shaker for two minutes at 500 rpm and subsequently incubated at room temperature for 10 minutes. Following incubation, the plates were spun at 3000×g for 30 seconds, then sealed with an optical adhesive cover, and luminescence readings were measured with an EnVision Plate Reader (Perkin Elmer).
(§6) Data was normalized using zero luminescence for baseline. A four-parameter non-linear regression curve fit was applied to dose-response data in GraphPad Prism data analysis software to determine the half-maximal growth inhibitory concentration (GI50) for each test compound.

For assay [2], the system named is T-Rex 293 cell line SC cells lacking increased expression of progesterone receptor isoform B protein. Nature of the assay: Cellular growth inhibition, T-Rex 293 SC cells without doxycycline, Example 45. Format: cell-based. The settings on record: T-Rex 293 SC cells not exposed to doxycycline, 72 hours treatment, CellTiter-Glo 2.0. As for the experimental part:
as §1, §2, §3, §4, §5, §6

A further assay has as its target T1, androgen receptor (Homo sapiens, UniProt P10275).
T1 sequence (P10275 1-920 T878A): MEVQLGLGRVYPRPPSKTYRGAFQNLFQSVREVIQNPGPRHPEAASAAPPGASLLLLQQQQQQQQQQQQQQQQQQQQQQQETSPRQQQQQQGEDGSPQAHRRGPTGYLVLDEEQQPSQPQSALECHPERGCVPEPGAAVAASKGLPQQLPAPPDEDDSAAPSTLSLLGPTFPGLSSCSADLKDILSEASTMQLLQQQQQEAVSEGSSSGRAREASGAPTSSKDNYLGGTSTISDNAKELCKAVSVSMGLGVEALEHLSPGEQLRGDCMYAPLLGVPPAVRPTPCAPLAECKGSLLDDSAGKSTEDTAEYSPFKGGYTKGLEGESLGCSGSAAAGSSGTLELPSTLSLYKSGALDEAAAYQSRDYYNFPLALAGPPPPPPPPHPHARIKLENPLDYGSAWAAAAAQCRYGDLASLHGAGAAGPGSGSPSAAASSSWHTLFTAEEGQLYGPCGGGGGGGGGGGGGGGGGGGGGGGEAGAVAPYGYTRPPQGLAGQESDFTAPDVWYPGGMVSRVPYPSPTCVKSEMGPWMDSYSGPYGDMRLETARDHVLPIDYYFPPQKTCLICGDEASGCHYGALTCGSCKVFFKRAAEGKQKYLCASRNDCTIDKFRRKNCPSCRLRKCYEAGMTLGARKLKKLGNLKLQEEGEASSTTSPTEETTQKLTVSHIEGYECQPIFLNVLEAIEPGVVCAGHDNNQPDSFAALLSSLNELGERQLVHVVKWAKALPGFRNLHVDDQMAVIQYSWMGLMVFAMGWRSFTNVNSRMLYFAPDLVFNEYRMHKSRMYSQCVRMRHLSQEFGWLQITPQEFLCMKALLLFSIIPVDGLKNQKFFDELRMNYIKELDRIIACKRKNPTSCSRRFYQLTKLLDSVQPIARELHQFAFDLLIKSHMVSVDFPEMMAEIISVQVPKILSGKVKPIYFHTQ
Nature of the assay: Assay for binding affinity to androgen receptor ([3H]methyltrienolone radioligand, cell cytosol). Conditions: 1 nM [3H]methyltrienolone, 24 hours at 4° C., Table 5. The protocol: Fractions of cell cytosol ([…] cell/point) were incubated for 24 hours at 4° C. with 1 nM [^3H]methyltrienolone in the absence or presence of the test compound in a buffer containing 25 mM Hepes-Tris (pH 7.4), 1 mM EDTA, 10 mM Na2MoO4, 2 mM DTT, 5 μM triamcinolone acetonide, and 10% glycerol. Nonspecific binding was determined in the presence of 1 μM testosterone. Following incubation, the samples were filtered rapidly under vacuum through glass fiber filters (GF/B, Packard) presoaked with 0.3% PEI and rinsed several times with ice-cold 50 mM Tris-HCl using a 96-sample cell harvester (Unifilter, Packard). The filters were dried then counted for radioactivity in a scintillation counter (Topcount, Packard) using a scintillation cocktail (Microscint 0, Packard). The results are expressed as a percent inhibition of the control radioligand specific binding. The standard reference compound is testosterone, which is tested in each experiment at several concentrations to obtain a competition curve from which its IC50 is calculated.

As usually defined, the GI50 is the concentration giving 50% growth inhibition. In general, Kd refers to the concentration at which binding is half-saturated. Higher therefore signals lower affinity.

As to `COCC[C@@H]1N=C(c2ccc(CCCOC3CCN(c4ncc(C(=O)N[C@H]5C(C)(C)[C@H](Oc6ccc(C#N)c(Cl)c6)C5(C)C)cn4)CC3)cc2)c2c(sc(C)c2C)-n2c(C)nnc21` [Compound I-227, N-[3-(3-chloro-4-cyano-phenoxy)-2,2,4,4-tetramethyl-cyclobutyl]-2-[4-[3-[4-[(9S)-9-(2-methoxyethyl)-4,5,13-trimethyl-3-thia-1,8,11,12-tetrazatricyclo[8.3.0.02,6]trideca-2(6),4,7,10,12-pentaen-7-yl]phenyl]propoxy]-1-piperidyl]pyrimidine-5-carboxamide], the results for the GI50 in assay [1] and in assay [2] were under 500 nM and 500 to 1500 nM, respectively. Consider `Cc1sc2c(c1C)C(c1ccc(N3CC(CC4CCN(c5ncc(C(=O)N[C@H]6C(C)(C)[C@H](Oc7ccc(C#N)c(Cl)c7)C6(C)C)cn5)CC4)C3)cc1)=N[C@@H](C)c1nnc(C)n1-2` [Compound I-270], for which the GI50 is under 500 nM in assay [1] and 500 to 1500 nM in assay [2]. For `Cc1sc2c(c1C)C(c1ccc(CCC3CC4(CCCN(c5ncc(C(=O)N[C@H]6C(C)(C)[C@H](Oc7ccc(C#N)c(Cl)c7)C6(C)C)cn5)C4)C3)cc1)=N[C@@H](Cc1ncco1)c1nnc(C)n1-2` [Compound I-241], the values for the GI50 in assay [1] and in assay [2] were under 500 nM and 500 to 1500 nM, respectively. As for `Cc1sc2c(c1C)C(c1ccc(CCCOC3CCN(c4ncc(C(=O)N[C@H]5C(C)(C)[C@H](Oc6ccc(C#N)c(Cl)c6)C5(C)C)cn4)CC3)cc1)=N[C@@H](Cc1ncco1)c1nnc(C)n1-2` [Compound I-131, N-[3-(3-chloro-4-cyano-phenoxy)-2,2,4,4-tetramethyl-cyclobutyl]-2-[4-[3-[4-[(9S)-4,5,13-trimethyl-9-(oxazol-2-ylmethyl)-3-thia-1,8,11,12-tetrazatricyclo[8.3.0.02,6]trideca-2(6),4,7,10,12-pentaen-7-yl]phenyl]propoxy]-1-piperidyl]pyrimidine-5-carboxamide], the GI50 in assay [1] and in assay [2] was under 500 nM in each case.

Regarding `Cc1sc2c(c1C)C(c1ccc(Cl)cc1)=N[C@@H](CC(=O)NCCOCCOCCOCCOCCN(C)c1ncc(C(=O)N[C@H]3C(C)(C)[C@H](Oc4ccc(C#N)c(Cl)c4)C3(C)C)cn1)c1nnc(C)n1-2` [Compound I-3, N-((1r,3r)-3-(3-chloro-4-cyanophenoxy)-2,2,4,4-tetramethylcyclobutyl)-2-((1-((S)-4-(4-chlorophenyl)-2,3,9-trimethyl-6H-thieno[3,2-f][1,2,4]triazolo[4,3-a][1,4]diazepin-6-yl)-2-oxo-6,9,12,15-tetraoxa-3-azaheptadecan-17-yl)(methyl)amino)pyrimidine-5-carboxamide], the GI50 in assay [1] was under 500 nM; in assay [2], 1500 to 3000 nM. Regarding `Cc1sc2c(c1C)C(c1ccc(C[C@H]3C[C@@H]([C@@H]4CCCN(c5ncc(C(=O)N[C@H]6C(C)(C)[C@H](Oc7ccc(C#N)c(Cl)c7)C6(C)C)cn5)C4)C3)cc1)=N[C@@H](Cc1ncco1)c1nnc(C)n1-2` [Compound I-161], the GI50 in assay [1] was under 500 nM; in assay [2], over 3000 nM. In the case of `CCNC(=O)C[C@@H]1N=C(c2ccc(OC3CCN(C4CCN(c5ncc(C(=O)N[C@H]6C(C)(C)[C@H](Oc7ccc(C#N)c(Cl)c7)C6(C)C)cn5)CC4)C3)cc2)c2c(sc(C)c2C)-n2c(C)nnc21` (stereo partly shown) [Compound I-85], the GI50 is under 500 nM in assay [1] and 500 to 1500 nM in assay [2]. In the case of `Cc1sc2c(c1C)C(c1ccc(N3CC(C4CCN(c5ncc(C(=O)N[C@H]6C(C)(C)[C@H](Oc7ccc(C#N)c(Cl)c7)C6(C)C)cn5)CC4)C3)cc1)=NC(Cc1ncco1)c1nnc(C)n1-2` (stereo partly shown) [Compound I-209], the GI50 in assay [1] is under 500 nM; in assay [2] it was 500 to 1500 nM. `Cc1sc2c(c1C)C(c1ccc(Cl)cc1)=N[C@H](CC(=O)NCCOCCOCCOCCOCCOC1CCN(c3ncc(C(=O)N[C@H]4C(C)(C)[C@H](Oc5ccc(C#N)c(Cl)c5)C4(C)C)cn3)CC1)c1nnc(C)n1-2` [Compound I-14]: the GI50 in assay [1] lay in the range of 500 to 1500 nM; in assay [2] it was 1500 to 3000 nM. For the compound `Cc1sc2c(c1C)C(c1ccc(OC3CN(CC4CCN(c5ncc(C(=O)N[C@H]6C(C)(C)[C@H](Oc7ccc(C#N)c(Cl)c7)C6(C)C)cn5)CC4)C3)cc1)=N[C@H](Cc1ncco1)c1nnc(C)n1-2` [Compound I-169], the GI50 in assay [1] and in assay [2] was under 500 nM throughout. For the compound `CCNC(=O)C[C@@H]1N=C(c2ccc(C#CCN3CCN(c4ncc(C(=O)N[C@H]5C(C)(C)[C@H](Oc6ccc(C#N)c(Cl)c6)C5(C)C)cn4)CC3)cc2)c2c(sc(C)c2C)-n2c(C)nnc21` [Compound I-54, N-[3-(3-chloro-4-cyano-phenoxy)-2,2,4,4-tetramethyl-cyclobutyl]-2-[4-[3-[4-[(9S)-9-[2-(ethylamino)-2-oxo-ethyl]-4,5,13-trimethyl-3-thia-1,8,11,12-tetrazatricyclo[8.3.0.02,6]trideca-2(6),4,7,10,12-pentaen-7-yl]phenyl]prop-2-ynyl]piperazin-1-yl]pyrimidine-5-carboxamide], the GI50 in assay [1] and in assay [2] was under 500 nM in each case.

In the case of `Cc1sc2c(c1C)C(c1ccc(OCCOCCOC3CCN(c4ncc(C(=O)N[C@H]5C(C)(C)[C@H](Oc6ccc(C#N)c(Cl)c6)C5(C)C)cn4)CC3)cc1)=N[C@@H](CC(=O)O)c1nnc(C)n1-2` [Compound I-39], the Kd at androgen receptor is under 50 nM.

As to `Cc1sc2c(c1C)C(c1ccc(OCCOCCOCCOC3CCN(c4ncc(C(=O)N[C@H]5C(C)(C)[C@H](Oc6ccc(C#N)c(Cl)c6)C5(C)C)cn4)CC3)cc1)=N[C@@H](CC(=O)O)c1nnc(C)n1-2` [Compound I-40], on androgen receptor, the Kd was under 50 nM. On androgen receptor, `CCNC(=O)C[C@@H]1N=C(c2ccc(OCC3CN(c4ncc(C(=O)N[C@H]5C(C)(C)[C@H](Oc6ccc(C#N)c(Cl)c6)C5(C)C)cn4)C3)cc2)c2c(sc(C)c2C)-n2c(C)nnc21` [Compound I-71] registered a Kd of under 50 nM.
